The values below come from the NIST ThermoML archive (doi:10.1021/je800243y).

The series can be described thus: molar heat capacity at constant pressure. To be noted: 101.33 kPa, Crystal, Large sample (1 g) DSC.

± gives the expanded uncertainty stated by the source.

With `O=c1[nH]c(=O)n([C@H]2C[C@H](O)[C@@H](CO)O2)cc1Br` [5-bromo-2'-deoxyuridine], the “molar heat capacity at constant pressure” value reads like this: (298.15 K) 260.65 ± 5.2 J/K/mol; (303.15 K) 263.37 ± 5.3 J/K/mol; (308.15 K) 266.08 ± 5.3 J/K/mol; (313.15 K) 268.8 ± 5.4 J/K/mol; (318.15 K) 271.51 ± 5.4 J/K/mol; (323.15 K) 274.23 ± 5.5 J/K/mol. Besides, the “molar heat capacity at constant pressure” value amounted to 276.94 ± 5.5 J/K/mol (328.15 K); 279.66 ± 5.6 J/K/mol (333.15 K); 282.38 ± 5.7 J/K/mol (338.15 K); 285.09 ± 5.7 J/K/mol (343.15 K); 287.81 ± 5.8 J/K/mol (348.15 K); 290.52 ± 5.8 J/K/mol (353.15 K). The “molar heat capacity at constant pressure” value is 293.24 ± 5.9 J/K/mol (358.15 K), 295.95 ± 5.9 J/K/mol (363.15 K) and 298.66 ± 6 J/K/mol (368.15 K).

`O=c1[nH]c(=O)n([C@@H]2O[C@H](CO)[C@@H](O)[C@H]2O)cc1Br` [5-bromouridine]: the “molar heat capacity at constant pressure” value was determined as 305.69 ± 6.1 J/K/mol (298.15 K); 306.16 ± 6.1 J/K/mol (303.15 K); 306.64 ± 6.1 J/K/mol (308.15 K); 307.11 ± 6.1 J/K/mol (313.15 K); 307.58 ± 6.2 J/K/mol (318.15 K); 308.05 ± 6.2 J/K/mol (323.15 K). Also, the “molar heat capacity at constant pressure” value is 308.52 ± 6.2 J/K/mol (328.15 K); 308.99 ± 6.2 J/K/mol (333.15 K); 309.47 ± 6.2 J/K/mol (338.15 K); 309.94 ± 6.2 J/K/mol (343.15 K); 310.41 ± 6.2 J/K/mol (348.15 K); 310.88 ± 6.2 J/K/mol (353.15 K). In addition, the “molar heat capacity at constant pressure” value (358.15 K) was determined as 311.35 ± 6.2 J/K/mol, the “molar heat capacity at constant pressure” value (363.15 K) is given as 311.82 ± 6.2 J/K/mol and the “molar heat capacity at constant pressure” value (368.15 K) is reported as 312.29 ± 6.2 J/K/mol.

On to `Cc1cn([C@H]2C[C@H](O)[C@@H](CO)O2)c(=O)[nH]c1=O` [thymidine], for which the “molar heat capacity at constant pressure” value is, setting by setting: (298.15 K) 276.7 ± 5.5 J/K/mol; (303.15 K) 278.84 ± 5.6 J/K/mol; (308.15 K) 280.97 ± 5.6 J/K/mol; (313.15 K) 283.12 ± 5.7 J/K/mol; (318.15 K) 285.25 ± 5.7 J/K/mol; (323.15 K) 287.4 ± 5.8 J/K/mol. In addition, the “molar heat capacity at constant pressure” value is on record as 289.53 ± 5.8 J/K/mol (328.15 K); 291.68 ± 5.8 J/K/mol (333.15 K); 293.81 ± 5.9 J/K/mol (338.15 K); 295.95 ± 5.9 J/K/mol (343.15 K); 298.09 ± 6 J/K/mol (348.15 K); 300.23 ± 6 J/K/mol (353.15 K). Further, the “molar heat capacity at constant pressure” value is, setting by setting: (358.15 K) 302.37 ± 6 J/K/mol; (363.15 K) 304.51 ± 6.1 J/K/mol; (368.15 K) 306.65 ± 6.1 J/K/mol.

As for `O=c1ccn([C@H]2C[C@H](O)[C@@H](CO)O2)c(=O)[nH]1` [2'-deoxyuridine], the “molar heat capacity at constant pressure” value was 263.41 ± 5.3 J/K/mol (298.15 K); 266.16 ± 5.3 J/K/mol (303.15 K); 268.9 ± 5.4 J/K/mol (308.15 K); 271.65 ± 5.4 J/K/mol (313.15 K); 274.39 ± 5.5 J/K/mol (318.15 K); 277.14 ± 5.5 J/K/mol (323.15 K). Moreover, the “molar heat capacity at constant pressure” value by setting is: (328.15 K) 279.89 ± 5.6 J/K/mol; (333.15 K) 282.63 ± 5.7 J/K/mol; (338.15 K) 285.38 ± 5.7 J/K/mol; (343.15 K) 288.12 ± 5.8 J/K/mol; (348.15 K) 290.86 ± 5.8 J/K/mol; (353.15 K) 293.6 ± 5.9 J/K/mol. Also, the “molar heat capacity at constant pressure” value by setting is: (358.15 K) 296.36 ± 5.9 J/K/mol; (363.15 K) 299.1 ± 6 J/K/mol; (368.15 K) 301.84 ± 6 J/K/mol.

For `O=c1[nH]c(=O)n([C@H]2C[C@H](O)[C@@H](CO)O2)cc1I` [5-iodo-2'-deoxyuridine], the “molar heat capacity at constant pressure” value (298.15 K) is 285.34 ± 5.7 J/K/mol; the “molar heat capacity at constant pressure” value (303.15 K) came to 287.61 ± 5.8 J/K/mol; the “molar heat capacity at constant pressure” value (308.15 K) is given as 289.88 ± 5.8 J/K/mol; the “molar heat capacity at constant pressure” value (313.15 K) is 292.15 ± 5.8 J/K/mol; the “molar heat capacity at constant pressure” value (318.15 K) amounted to 294.43 ± 5.9 J/K/mol; the “molar heat capacity at constant pressure” value (323.15 K) is on record as 296.69 ± 5.9 J/K/mol. In addition, the “molar heat capacity at constant pressure” value stood at 298.96 ± 6 J/K/mol (328.15 K); 301.22 ± 6 J/K/mol (333.15 K); 303.48 ± 6.1 J/K/mol (338.15 K); 305.76 ± 6.1 J/K/mol (343.15 K); 308.02 ± 6.2 J/K/mol (348.15 K); 310.3 ± 6.2 J/K/mol (353.15 K). The “molar heat capacity at constant pressure” value reads like this: (358.15 K) 312.55 ± 6.2 J/K/mol; (363.15 K) 314.82 ± 6.3 J/K/mol; (368.15 K) 317.09 ± 6.3 J/K/mol.

Consider `O=c1[nH]c(=O)n([C@@H]2O[C@H](CO)[C@@H](O)[C@H]2O)cc1I` [2,4-dihdroxy-5-iodo-1-β-D-ribofurnosylpyrimidine], for which the “molar heat capacity at constant pressure” value stood at 337.43 ± 6.8 J/K/mol (298.15 K); 338.14 ± 6.8 J/K/mol (303.15 K); 338.86 ± 6.8 J/K/mol (308.15 K); 339.57 ± 6.8 J/K/mol (313.15 K); 340.29 ± 6.8 J/K/mol (318.15 K); 341 ± 6.8 J/K/mol (323.15 K). The “molar heat capacity at constant pressure” value (328.15 K) was determined as 341.72 ± 6.8 J/K/mol; the “molar heat capacity at constant pressure” value (333.15 K) worked out at 342.43 ± 6.8 J/K/mol; the “molar heat capacity at constant pressure” value (338.15 K) came out at 343.15 ± 6.9 J/K/mol; the “molar heat capacity at constant pressure” value (343.15 K) is reported as 343.86 ± 6.9 J/K/mol; the “molar heat capacity at constant pressure” value (348.15 K) amounted to 344.58 ± 6.9 J/K/mol; the “molar heat capacity at constant pressure” value (353.15 K) is given as 345.29 ± 6.9 J/K/mol. Moreover, the “molar heat capacity at constant pressure” value is given as 346.01 ± 6.9 J/K/mol (358.15 K), 346.72 ± 6.9 J/K/mol (363.15 K) and 347.44 ± 7 J/K/mol (368.15 K).
